Data from patent publication US9340590B2 (priority 2011, dated 2016).
Positions of bridges follow the written chain, without caps; N, C: chain ends. Residues, ends and D or L forms follow the SMILES beside them.

How the values were obtained:
Experiment in all cases: cell-based
hNav1.7 = hNav1.7 (Homo sapiens, UniProt Q15858); format: cell-based; conditions: IonWorks Quattro; clamped to −110 mV, depolarized to −10 mV, 5 min after compound; n=2; read-out: IWQ Use Nav1.7
hNav1.5 = hNav1.5 (Homo sapiens, UniProt Q14524); conditions: IonWorks Quattro; clamped to −110 mV, depolarized to −10 mV, 5 min after compound; n=2; read-out: IWQ Use Nav1.5
hNav1.3 = hNav1.3 (Homo sapiens, UniProt Q9NY46); conditions: IonWorks Quattro; clamped to −110 mV, depolarized to −10 mV, 5 min after compound; n=2; read-out: IWQ Use Nav1.3
hNav1.3, sequence (Q9NY46 whole entry, looked up): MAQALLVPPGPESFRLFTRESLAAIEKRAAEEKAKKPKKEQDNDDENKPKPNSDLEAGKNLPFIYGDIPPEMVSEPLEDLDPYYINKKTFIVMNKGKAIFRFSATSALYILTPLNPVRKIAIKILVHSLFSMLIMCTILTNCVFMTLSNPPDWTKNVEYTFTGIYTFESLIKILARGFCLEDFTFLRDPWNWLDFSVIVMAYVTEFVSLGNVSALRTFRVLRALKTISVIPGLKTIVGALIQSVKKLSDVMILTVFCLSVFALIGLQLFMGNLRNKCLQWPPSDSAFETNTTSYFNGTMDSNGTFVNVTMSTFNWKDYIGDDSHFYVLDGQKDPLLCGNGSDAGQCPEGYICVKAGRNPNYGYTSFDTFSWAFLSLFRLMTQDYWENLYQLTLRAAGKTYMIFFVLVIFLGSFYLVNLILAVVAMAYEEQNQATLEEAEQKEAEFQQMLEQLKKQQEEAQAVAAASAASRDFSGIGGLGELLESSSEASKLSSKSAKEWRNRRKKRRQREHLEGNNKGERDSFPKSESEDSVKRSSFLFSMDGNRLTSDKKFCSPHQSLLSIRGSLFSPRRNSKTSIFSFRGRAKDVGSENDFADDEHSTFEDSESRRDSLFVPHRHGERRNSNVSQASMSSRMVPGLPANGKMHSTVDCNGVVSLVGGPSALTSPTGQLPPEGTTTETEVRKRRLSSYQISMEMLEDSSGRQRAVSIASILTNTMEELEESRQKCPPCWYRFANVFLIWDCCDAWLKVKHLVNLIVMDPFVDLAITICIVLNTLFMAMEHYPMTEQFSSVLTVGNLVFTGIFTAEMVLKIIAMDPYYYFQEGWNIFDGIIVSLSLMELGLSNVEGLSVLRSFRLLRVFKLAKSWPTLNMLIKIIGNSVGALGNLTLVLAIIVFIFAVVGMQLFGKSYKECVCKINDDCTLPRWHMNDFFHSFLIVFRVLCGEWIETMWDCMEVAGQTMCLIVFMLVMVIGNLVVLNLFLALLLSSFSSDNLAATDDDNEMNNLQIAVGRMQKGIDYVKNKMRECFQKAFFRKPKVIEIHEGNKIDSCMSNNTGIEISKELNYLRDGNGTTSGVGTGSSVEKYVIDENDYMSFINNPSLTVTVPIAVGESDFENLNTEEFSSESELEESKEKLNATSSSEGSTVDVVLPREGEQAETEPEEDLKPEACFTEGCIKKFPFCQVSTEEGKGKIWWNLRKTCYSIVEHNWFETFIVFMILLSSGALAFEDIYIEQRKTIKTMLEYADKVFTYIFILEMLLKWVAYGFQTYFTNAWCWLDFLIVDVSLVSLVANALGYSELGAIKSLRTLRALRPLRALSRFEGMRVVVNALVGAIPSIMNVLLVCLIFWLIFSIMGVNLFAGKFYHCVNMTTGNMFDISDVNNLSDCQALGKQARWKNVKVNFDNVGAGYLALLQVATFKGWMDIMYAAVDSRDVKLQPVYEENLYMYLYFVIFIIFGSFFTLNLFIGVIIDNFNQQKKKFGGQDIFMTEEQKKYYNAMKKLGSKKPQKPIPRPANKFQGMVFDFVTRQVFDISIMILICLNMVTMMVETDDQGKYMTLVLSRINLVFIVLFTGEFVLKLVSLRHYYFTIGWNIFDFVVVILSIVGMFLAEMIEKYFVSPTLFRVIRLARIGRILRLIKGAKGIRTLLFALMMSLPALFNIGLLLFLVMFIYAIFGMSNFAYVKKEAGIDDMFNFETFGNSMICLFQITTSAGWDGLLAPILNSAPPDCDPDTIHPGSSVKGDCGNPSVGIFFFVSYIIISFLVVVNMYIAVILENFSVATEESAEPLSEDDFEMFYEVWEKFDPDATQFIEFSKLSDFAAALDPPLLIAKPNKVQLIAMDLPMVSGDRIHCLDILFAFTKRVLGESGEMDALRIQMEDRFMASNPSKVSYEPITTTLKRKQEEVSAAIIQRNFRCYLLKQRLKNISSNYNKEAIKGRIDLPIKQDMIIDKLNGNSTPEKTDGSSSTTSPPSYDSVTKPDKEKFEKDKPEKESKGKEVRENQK

hNav1.7, sequence (Q15858 whole entry, looked up): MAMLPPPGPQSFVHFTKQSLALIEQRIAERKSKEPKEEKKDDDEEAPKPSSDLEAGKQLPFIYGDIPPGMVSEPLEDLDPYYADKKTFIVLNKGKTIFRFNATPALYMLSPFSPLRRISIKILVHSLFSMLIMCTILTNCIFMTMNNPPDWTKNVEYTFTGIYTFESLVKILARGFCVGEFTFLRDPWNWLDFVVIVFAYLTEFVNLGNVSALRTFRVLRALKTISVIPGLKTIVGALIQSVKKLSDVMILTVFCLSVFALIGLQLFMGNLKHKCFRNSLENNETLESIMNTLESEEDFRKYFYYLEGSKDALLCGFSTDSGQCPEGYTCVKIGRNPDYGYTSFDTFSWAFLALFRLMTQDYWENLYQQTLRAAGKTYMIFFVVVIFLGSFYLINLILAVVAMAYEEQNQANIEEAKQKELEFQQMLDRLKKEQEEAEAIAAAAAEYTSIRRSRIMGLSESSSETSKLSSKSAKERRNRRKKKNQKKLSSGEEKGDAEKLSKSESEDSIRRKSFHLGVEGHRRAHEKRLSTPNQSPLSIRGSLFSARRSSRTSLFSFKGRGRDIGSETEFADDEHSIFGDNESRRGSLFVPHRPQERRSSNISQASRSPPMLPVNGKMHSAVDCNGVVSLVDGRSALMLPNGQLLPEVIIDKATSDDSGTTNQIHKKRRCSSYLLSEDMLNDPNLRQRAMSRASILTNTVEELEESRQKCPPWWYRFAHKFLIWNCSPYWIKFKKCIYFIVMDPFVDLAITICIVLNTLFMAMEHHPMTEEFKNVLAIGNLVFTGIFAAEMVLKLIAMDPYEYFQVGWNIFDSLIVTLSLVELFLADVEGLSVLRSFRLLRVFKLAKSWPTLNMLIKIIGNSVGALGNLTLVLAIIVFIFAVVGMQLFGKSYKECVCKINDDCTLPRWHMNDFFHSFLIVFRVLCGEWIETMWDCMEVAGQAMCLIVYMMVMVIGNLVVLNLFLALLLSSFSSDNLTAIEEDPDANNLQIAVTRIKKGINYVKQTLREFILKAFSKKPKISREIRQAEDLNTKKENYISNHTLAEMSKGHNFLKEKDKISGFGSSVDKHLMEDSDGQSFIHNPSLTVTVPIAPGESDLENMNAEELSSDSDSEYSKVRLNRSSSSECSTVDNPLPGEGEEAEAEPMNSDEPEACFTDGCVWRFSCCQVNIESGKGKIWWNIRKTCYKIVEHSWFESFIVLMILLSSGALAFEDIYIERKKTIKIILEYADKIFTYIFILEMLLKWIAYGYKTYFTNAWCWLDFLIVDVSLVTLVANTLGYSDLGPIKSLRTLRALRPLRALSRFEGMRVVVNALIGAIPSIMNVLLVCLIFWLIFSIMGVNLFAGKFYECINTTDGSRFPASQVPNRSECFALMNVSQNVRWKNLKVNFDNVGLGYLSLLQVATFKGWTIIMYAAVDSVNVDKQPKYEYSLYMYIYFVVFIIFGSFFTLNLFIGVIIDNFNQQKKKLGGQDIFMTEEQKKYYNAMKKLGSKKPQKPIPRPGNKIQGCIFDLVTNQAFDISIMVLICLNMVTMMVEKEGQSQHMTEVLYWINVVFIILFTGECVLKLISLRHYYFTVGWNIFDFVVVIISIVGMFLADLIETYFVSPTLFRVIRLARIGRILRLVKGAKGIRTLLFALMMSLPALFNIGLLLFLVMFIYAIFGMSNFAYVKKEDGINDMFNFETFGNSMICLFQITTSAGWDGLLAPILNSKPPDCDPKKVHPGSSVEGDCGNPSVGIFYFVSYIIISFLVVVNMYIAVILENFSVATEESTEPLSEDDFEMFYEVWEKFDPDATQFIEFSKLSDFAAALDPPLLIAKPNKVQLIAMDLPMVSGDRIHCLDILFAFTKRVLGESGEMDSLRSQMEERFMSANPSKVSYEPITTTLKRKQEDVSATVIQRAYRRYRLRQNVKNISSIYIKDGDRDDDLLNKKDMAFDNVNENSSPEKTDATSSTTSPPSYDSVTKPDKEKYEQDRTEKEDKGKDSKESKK

SMILES	IC50 (hNav1.7) [µM]	IC50 (hNav1.5) [µM]	IC50 (hNav1.3) [µM]
CC[C@H](C)[C@@H]1NC(=O)[C@@H]2CSSC[C@@H]3NC(=O)[C@H](C(C)C)NC(=O)[C@H](CC(C)C)NC(=O)[C@H](CC(N)=O)NC(=O)[C@@H]4CCCN4C(=O)[C@H](CCCNC(=N)N)NC(=O)[C@H](CSSC[C@H](NC(=O)[C@@H](N)CC(=O)O)C(=O)N[C@@H](CC(C)C)C(=O)NCC(=O)N[C@@H](Cc4ccc(C(=O)O)cc4)C(=O)N[C@@H](CCSC)C(=O)N[C@@H](CCCNC(=N)N)C(=O)N[C@@H](CCCCN)C(=O)N2)NC(=O)[C@H](CSSC[C@@H](C(=O)N[C@@H](CCCCN)C(=O)N[C@@H](Cc2ccc(O)cc2)C(=O)N[C@H](C(=O)N[C@@H](Cc2ccccc2)C(N)=O)C(C)C)NC(=O)[C@H](Cc2c[nH]c4ccccc24)NC(=O)[C@H](CCCCN)NC(=O)[C@H](Cc2c[nH]cn2)NC(=O)[C@H]([C@@H](C)O)NC(=O)[C@H](CCCNC(=N)N)NC(=O)[C@H](CO)NC3=O)NC(=O)[C@H](CCCCN)NC(=O)[C@H](CC(=O)O)NC(=O)[C@H](CC(N)=O)NC(=O)[C@H](CC(=O)O)NC(=O)[C@@H]2CCCN2C1=O [SEQ ID NO: 276]	16	8.12	5.42
CC[C@H](C)[C@@H]1NC(=O)[C@@H]2CSSC[C@@H]3NC(=O)[C@H](C(C)C)NC(=O)[C@H](CC(C)C)NC(=O)[C@H](CC(N)=O)NC(=O)[C@@H]4CCCN4C(=O)[C@H](CCCNC(=N)N)NC(=O)[C@H](CSSC[C@H](NC(=O)[C@@H](N)CC(=O)O)C(=O)N[C@@H](CC(C)C)C(=O)NCC(=O)N[C@@H](Cc4ccccn4)C(=O)N[C@@H](CCSC)C(=O)N[C@@H](CCCNC(=N)N)C(=O)N[C@@H](CCCCN)C(=O)N2)NC(=O)[C@H](CSSC[C@@H](C(=O)N[C@@H](CCCCN)C(=O)N[C@@H](Cc2ccc(O)cc2)C(=O)N[C@H](C(=O)N[C@@H](Cc2ccccc2)C(N)=O)C(C)C)NC(=O)[C@H](Cc2c[nH]c4ccccc24)NC(=O)[C@H](CCCCN)NC(=O)[C@H](Cc2c[nH]cn2)NC(=O)[C@H]([C@@H](C)O)NC(=O)[C@H](CCCNC(=N)N)NC(=O)[C@H](CO)NC3=O)NC(=O)[C@H](CCCCN)NC(=O)[C@H](CC(=O)O)NC(=O)[C@H](CC(N)=O)NC(=O)[C@H](CC(=O)O)NC(=O)[C@@H]2CCCN2C1=O [SEQ ID NO: 277]	2.07	9.25	4.58
CC[C@H](C)[C@@H]1NC(=O)[C@@H]2CSSC[C@@H]3NC(=O)[C@H](C(C)C)NC(=O)[C@H](CC(C)C)NC(=O)[C@H](CC(N)=O)NC(=O)[C@@H]4CCCN4C(=O)[C@H](CCCNC(=N)N)NC(=O)[C@H](CSSC[C@H](NC(=O)[C@@H](N)CC(=O)O)C(=O)N[C@@H](CC(C)C)C(=O)NCC(=O)N[C@@H](Cc4ccccc4)C(=O)N[C@@H](CC(N)=O)C(=O)N[C@@H](CCCNC(=N)N)C(=O)N[C@@H](CCCCN)C(=O)N2)NC(=O)[C@H](CSSC[C@@H](C(=O)N[C@@H](CCCCN)C(=O)N[C@@H](Cc2ccc(O)cc2)C(=O)N[C@H](C(=O)N[C@@H](Cc2ccccc2)C(N)=O)C(C)C)NC(=O)[C@H](Cc2c[nH]c4ccccc24)NC(=O)[C@H](CCCCN)NC(=O)[C@H](Cc2c[nH]cn2)NC(=O)[C@H]([C@@H](C)O)NC(=O)[C@H](CCCNC(=N)N)NC(=O)[C@H](CO)NC3=O)NC(=O)[C@H](CCCCN)NC(=O)[C@H](CC(=O)O)NC(=O)[C@H](CC(N)=O)NC(=O)[C@H](CC(=O)O)NC(=O)[C@@H]2CCCN2C1=O [SEQ ID NO: 278] (H-DCLGFNRKCIPDNDKCCRPNLVCSRTHKWCKYVF-NH2; disulfide 2-17, 9-23, 16-30)	6.89	10.3	6.28
CC[C@H](C)[C@@H]1NC(=O)[C@@H]2CSSC[C@@H]3NC(=O)[C@H](C(C)C)NC(=O)[C@H](CC(C)C)NC(=O)[C@H](CC(N)=O)NC(=O)[C@@H]4CCCN4C(=O)[C@H](CCCNC(=N)N)NC(=O)[C@H](CSSC[C@H](NC(=O)[C@@H](N)CC(=O)O)C(=O)N[C@@H](CC(C)C)C(=O)NCC(=O)N[C@@H](Cc4ccccc4)C(=O)N[C@@H](CCC(N)=O)C(=O)N[C@@H](CCCNC(=N)N)C(=O)N[C@@H](CCCCN)C(=O)N2)NC(=O)[C@H](CSSC[C@@H](C(=O)N[C@@H](CCCCN)C(=O)N[C@@H](Cc2ccc(O)cc2)C(=O)N[C@H](C(=O)N[C@@H](Cc2ccccc2)C(N)=O)C(C)C)NC(=O)[C@H](Cc2c[nH]c4ccccc24)NC(=O)[C@H](CCCCN)NC(=O)[C@H](Cc2c[nH]cn2)NC(=O)[C@H]([C@@H](C)O)NC(=O)[C@H](CCCNC(=N)N)NC(=O)[C@H](CO)NC3=O)NC(=O)[C@H](CCCCN)NC(=O)[C@H](CC(=O)O)NC(=O)[C@H](CC(N)=O)NC(=O)[C@H](CC(=O)O)NC(=O)[C@@H]2CCCN2C1=O [SEQ ID NO: 279] (H-DCLGFQRKCIPDNDKCCRPNLVCSRTHKWCKYVF-NH2; disulfide 2-17, 9-23, 16-30)	8.62	7.57	5.96
CC[C@H](C)[C@@H]1NC(=O)[C@@H]2CSSC[C@@H]3NC(=O)[C@H](C(C)C)NC(=O)[C@H](CC(C)C)NC(=O)[C@H](CC(N)=O)NC(=O)[C@@H]4CCCN4C(=O)[C@H](CCCNC(=N)N)NC(=O)[C@H](CSSC[C@H](NC(=O)[C@@H](N)CC(=O)O)C(=O)N[C@@H](CC(C)C)C(=O)NCC(=O)N[C@@H](Cc4ccccc4)C(=O)NCC(=O)N[C@@H](CCCNC(=N)N)C(=O)N[C@@H](CCCCN)C(=O)N2)NC(=O)[C@H](CSSC[C@@H](C(=O)N[C@@H](CCCCN)C(=O)N[C@@H](Cc2ccc(O)cc2)C(=O)N[C@H](C(=O)N[C@@H](Cc2ccccc2)C(N)=O)C(C)C)NC(=O)[C@H](Cc2c[nH]c4ccccc24)NC(=O)[C@H](CCCCN)NC(=O)[C@H](Cc2c[nH]cn2)NC(=O)[C@H]([C@@H](C)O)NC(=O)[C@H](CCCNC(=N)N)NC(=O)[C@H](CO)NC3=O)NC(=O)[C@H](CCCCN)NC(=O)[C@H](CC(=O)O)NC(=O)[C@H](CC(N)=O)NC(=O)[C@H](CC(=O)O)NC(=O)[C@@H]2CCCN2C1=O [SEQ ID NO: 280] (H-DCLGFGRKCIPDNDKCCRPNLVCSRTHKWCKYVF-NH2; disulfide 2-17, 9-23, 16-30)	0.18	8.2	0.14
CC[C@H](C)[C@@H]1NC(=O)[C@@H]2CSSC[C@@H]3NC(=O)[C@H](C(C)C)NC(=O)[C@H](CC(C)C)NC(=O)[C@H](CC(N)=O)NC(=O)[C@@H]4CCCN4C(=O)[C@H](CCCNC(=N)N)NC(=O)[C@H](CSSC[C@H](NC(=O)[C@@H](N)CC(=O)O)C(=O)N[C@@H](CC(C)C)C(=O)NCC(=O)N[C@@H](Cc4ccccc4)C(=O)N[C@@H](Cc4c[nH]cn4)C(=O)N[C@@H](CCCNC(=N)N)C(=O)N[C@@H](CCCCN)C(=O)N2)NC(=O)[C@H](CSSC[C@@H](C(=O)N[C@@H](CCCCN)C(=O)N[C@@H](Cc2ccc(O)cc2)C(=O)N[C@H](C(=O)N[C@@H](Cc2ccccc2)C(N)=O)C(C)C)NC(=O)[C@H](Cc2c[nH]c4ccccc24)NC(=O)[C@H](CCCCN)NC(=O)[C@H](Cc2c[nH]cn2)NC(=O)[C@H]([C@@H](C)O)NC(=O)[C@H](CCCNC(=N)N)NC(=O)[C@H](CO)NC3=O)NC(=O)[C@H](CCCCN)NC(=O)[C@H](CC(=O)O)NC(=O)[C@H](CC(N)=O)NC(=O)[C@H](CC(=O)O)NC(=O)[C@@H]2CCCN2C1=O [SEQ ID NO: 281] (H-DCLGFHRKCIPDNDKCCRPNLVCSRTHKWCKYVF-NH2; disulfide 2-17, 9-23, 16-30)	4.72	10.1	7.77
